Test results as given in patent US20110262508A1, “ANTIMICROBIAL COMPOSITIONS, FORMULATIONS AND USES THEREOF” (priority 2007, published 2011).
Values after ≈ are worked out from the molar mass of the structure shown. Where two headings read alike, the source gives them in different places. Peptide text beside a SMILES is read from it. * marks the point of attachment. Biotin = O=C1N[C@H]2[C@H](CS[C@H]2CCCCC(=O)*)N1

Key:
A. baumannii = format: cell-based
In short: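 Laboratory strains and 50 clinical isolates of A. baumannii were tested by CLSI broth microdilution, with serially diluted peptide (0.1-64 μg) and about 1×10^5 C.F.U. per well, incubated aerobically overnight at 35±2° C. MIC was read visually. MBC came from subculturing clear wells, as ≥99.9% inoculum reduction.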

human RBC = assay: Hemolysis of RBC; format: cell-based
Protocol: Varying amounts of peptide were incubated with the washed RBC for one hour at room temperature. Intact cells were pelleted by gentle centrifugation, and hemolysis of each sample was determined by absorption measurement at 450 nm. A positive control sample consisted of RBC lysed by the addition of 0.1% Triton, for which hemolysis was also determined by absorption measurement at 450 nm. Percentages of lysed RBC incubated with peptide were then calculated by the ratio of absorbances at 450 nm for the sample relative to the absorbance at 450 nm of the positive control sample. The MHC10 value was calculated as the minimum peptide concentration to induce 10% cell lysis.

[1] = Cytotoxicity against Jurkat cells (CellTiter Blue); format: cell-based, human; conditions: human
Protocol: (§1) The cytotoxicities of selected peptides against human T-lymphocytes, in particular Jurkat cells, was determined by growing 100 uL Jurkat cells in RPMI (approx. 5×10^5 cells/ml density) overnight at 37° C. under 5% CO2 atmosphere, in microtiter plate wells, in the presence and absence of peptides. Control reactions either lacked peptide (negative cytotoxicity control), or contained a buffer to completely lyse Jurkat cells (positive cytotoxicity control). The viabilities of cells were then determined by addition of 20 uL CellTiter Blue dye (Promega) to each well, and incubation of cells for a further 3 hrs at 37° C. Fluorescence values were measured for 1 sec at 540 nm/615 nm, and expressed relative to fluorescence values for negative and positive cytotoxicity control samples. Comparison with a fully lysed control allowed the calculation of a percentage killing for each peptide concentration. The MCC10 value was calculated as the minimum peptide concentration required to induce 10% cytotoxicity.

Jurkat cells = assay: Cytotoxicity against Jurkat cells (CellTiter Blue); format: cell-based, human
Protocol: as §1

[2] = system: S. typhimurium strain AroA; format: cell-based
Protocol: Synthetic peptides were tested for their ability to inhibit bacterial growth in liquid culture. […] 19606, Acinetobacter spp. ATCC 17903, Acinetobacter spp. ATCC 19004, Escherichia coli strain BL21, S. aureus, S. typhimurium strain AroA, P. aeruginosa or P. pneumotropica. After 5-6 hours of shaking at 37° C., growth was measured as absorbance at 595 nm. As a control, cultures were grown in the presence of 0.1% acetonitrile (i.e., the concentration present in 10 μM peptide).

[3] = system: A. baumannii ATCC 19606, Acinetobacter spp. ATCC 17903, Acinetobacter spp. ATCC 19004, E. coli BL21, S. aureus, S. typhimurium AroA, P. aeruginosa, P. …; assay: Antibacterial spectrum over the serial dilution panel (Table 6); format: cell-based; conditions: summary of Table 6
In short: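 Peptides at about 5–10 μM were added to liquid media freshly inoculated with each bacterial strain and shaken 5-6 h at 37° C. Growth read as absorbance at 595 nm; control cultures contained 0.1% acetonitrile.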

MIC (μM) for non-amidated Peptide (A. baumannii) [µM] | SMILES | MHC10 (human RBC) [µM] | cytotoxicity at 12.5 μM [1] [%] | cytotoxicity at 25 μM [1] [%] | cytotoxicity at 50 μM [1] [%] | MCC10 (Jurkat cells) [µM] | also measured
20 | CC(C)C[C@H](NC(=O)[C@H](CC(N)=O)NC(=O)[C@H](CCCCN)NC(=O)[C@@H]1CCCN1C(=O)[C@H](CC(C)C)NC(=O)[C@H](CS)NC(=O)[C@H](Cc1ccccc1)NC(=O)[C@H](Cc1ccccc1)NC(=O)CNC(=O)[C@@H](NC(=O)[C@H](CCCNC(=N)N)NC(=O)CCCC[C@@H]1SC[C@@H]2NC(=O)N[C@@H]21)[C@@H](C)O)C(=O)N[C@@H](CCCCN)C(=O)N[C@@H](CCCNC(=N)N)C(=O)N[C@@H](CO)C(=O)N[C@@H](CCCCN)C(=O)N[C@@H](Cc1ccccc1)C(=O)N[C@@H](CS)C(=O)N[C@@H](C)C(=O)N[C@@H](Cc1ccccc1)C(=O)N[C@@H](CC(C)C)C(=O)N[C@@H](CC(=O)O)C(=O)N1CCC[C@H]1C(=O)N[C@H](C(=O)O)[C@@H](C)O [Ac323] (Biotin-RTGFFCLPKNLKRSKFCAFLDPT-OH; N-terminus and C-terminus assumed) | 30 | 9 | 31 | 49 | 13 | –
20 to 25 | CC[C@H](C)[C@H](NC(=O)[C@H](C)NC(=O)[C@H](CC(N)=O)NC(=O)[C@H](CS)NC(=O)[C@H](CS)NC(=O)CCCC[C@@H]1SC[C@@H]2NC(=O)N[C@@H]21)C(=O)N[C@H](C(=O)N[C@@H](Cc1ccc(O)cc1)C(=O)N[C@@H](CCCCN)C(=O)N[C@@H](Cc1c[nH]c2ccccc12)C(=O)N[C@H](C(=O)N[C@@H](CC(C)C)C(=O)N[C@@H](Cc1c[nH]cn1)C(=O)N[C@@H](Cc1ccccc1)C(=O)N[C@@H](Cc1ccccc1)C(=O)N[C@@H](Cc1c[nH]c2ccccc12)C(=O)N[C@@H](CCCNC(=N)N)C(=O)N[C@@H](CCCCN)C(=O)N[C@@H](CCCNC(=N)N)C(=O)N[C@@H](C)C(=O)N[C@@H](Cc1c[nH]c2ccccc12)C(=O)N[C@@H](Cc1ccc(O)cc1)C(=O)N[C@@H](CS)C(=O)N[C@@H](Cc1ccccc1)C(=O)O)[C@@H](C)CC)[C@@H](C)CC [Ac228] (Biotin-CCNAIIYKWILHFFWRKRAWYCF-OH; N-terminus and C-terminus assumed) | ~10 | 0 | 5 | 29 | 42 | MIC (A. baumannii): 25 µM (≈ 82.4 µg/mL); bactericidal or bacteriostatic against A. baumannii (A. baumannii): bacteriostatic; MBC (μM) (A. baumannii; A. baumannii (Table 8), reduces original inoculum by at least about 99.9%): bacteriostat; haemolytic activity (in words) (human RBC): reproducibly higher haemolytic activities; Percent hemolysis at 5 μM peptide (human RBC; red cells of human, 5): 2.6%; Percent hemolysis at 10 μM peptide (human RBC; red cells of human, 10): 11.0%; Percent hemolysis at 20 μM peptide (human RBC; red cells of human, 20): 9.9%; Percent hemolysis at 40 μM peptide (human RBC; red cells of human, 40): 22.9%; Percent hemolysis at 60 μM peptide (human RBC; red cells of human, 60): 40.1%; Percent hemolysis at 80 μM peptide (human RBC; red cells of human, 80): 80.4%; Percent hemolysis at 100 μM peptide (human RBC; red cells of human, 1 h, 100): 97.1%
10 | CC[C@H](C)[C@H](NC(=O)[C@H](CCC(N)=O)NC(=O)[C@H](CCCNC(=N)N)NC(=O)[C@@H](NC(=O)[C@@H](NC(=O)[C@@H]1CCCN1C(=O)[C@@H]1CCCN1C(=O)[C@H](CCSC)NC(=O)[C@H](CCCNC(=N)N)NC(=O)[C@H](CC(N)=O)NC(=O)[C@@H](NC(=O)CNC(=O)[C@H](Cc1c[nH]c2ccccc12)NC(=O)CCCC[C@@H]1SC[C@@H]2NC(=O)N[C@@H]21)C(C)C)C(C)C)C(C)C)C(=O)N[C@@H](CC(C)C)C(=O)N[C@@H](CCCNC(=N)N)C(=O)N[C@@H](CO)C(=O)N[C@@H](CCC(=O)O)C(=O)N[C@@H](Cc1c[nH]c2ccccc12)C(=O)N[C@@H](CCCNC(=N)N)C(=O)N[C@@H](CC(N)=O)C(=O)N[C@@H](Cc1c[nH]c2ccccc12)C(=O)N[C@@H](CCCNC(=N)N)C(=O)N[C@@H](CCCCN)C(=O)O [Ac436] (Biotin-WGVNRMPPVVRQILRSEWRNWRK-OH) | 75 | 6 | 10 | 32 | 25 | –
25 | CC(C)C[C@H](NC(=O)[C@H](CCC(N)=O)NC(=O)[C@H](CCCNC(=N)N)NC(=O)[C@H](Cc1ccccc1)NC(=O)[C@H](Cc1ccc(O)cc1)NC(=O)[C@H](CC(C)C)NC(=O)[C@H](Cc1c[nH]c2ccccc12)NC(=O)[C@H](Cc1ccccc1)NC(=O)[C@H](CCCNC(=N)N)NC(=O)[C@H](CCCNC(=N)N)NC(=O)[C@H](CO)NC(=O)[C@H](CC(=O)O)NC(=O)[C@H](CC(C)C)NC(=O)[C@H](Cc1c[nH]c2ccccc12)NC(=O)[C@H](Cc1ccccc1)NC(=O)[C@H](CC(=O)O)NC(=O)[C@H](CCCNC(=N)N)NC(=O)[C@H](CCCNC(=N)N)NC(=O)[C@H](C)NC(=O)[C@H](CCC(N)=O)NC(=O)[C@H](CO)NC(=O)[C@H](CCCNC(=N)N)NC(=O)CCCC[C@@H]1SC[C@@H]2NC(=O)N[C@@H]21)C(=O)N[C@@H](Cc1ccccc1)C(=O)O [Ac474] (Biotin-RSQARRDFWLDSRRFWLYFRQLF-OH) | 5 | 13 | 20 | 81 | 10 | –
12.5 | CC(C)C[C@H](NC(=O)[C@H](CC(=O)O)NC(=O)[C@H](CO)NC(=O)CCCC[C@@H]1SC[C@@H]2NC(=O)N[C@@H]21)C(=O)NCC(=O)N[C@@H](CCCCN)C(=O)N[C@@H](CO)C(=O)NCC(=O)N[C@@H](C)C(=O)NCC(=O)N[C@@H](Cc1c[nH]c2ccccc12)C(=O)N[C@@H](CCCNC(=N)N)C(=O)N[C@@H](Cc1c[nH]c2ccccc12)C(=O)N[C@@H](CCCNC(=N)N)C(=O)N[C@@H](C)C(=O)N[C@@H](CS)C(=O)N[C@@H](CC(N)=O)C(=O)N[C@H](C(=O)N[C@@H](CC(C)C)C(=O)N[C@@H](CO)C(=O)N[C@@H](CCCCN)C(=O)N[C@@H](CS)C(=O)N[C@@H](CCCNC(=N)N)C(=O)NCC(=O)O)[C@@H](C)O [Ac378] (Biotin-SDLGKSGAGWRWRACNTLSKCRG-OH; N-terminus and C-terminus assumed) | 50 | 0 | 0 | 35 | 30 | –
– | CC[C@H](C)[C@H](NC(=O)[C@H](CCCCN)NC(=O)[C@@H](NC(=O)[C@H](CCCNC(=N)N)NC(=O)[C@H](CO)NC(=O)[C@H](Cc1ccccc1)NC(=O)[C@H](CS)NC(=O)[C@H](CC(N)=O)NC(=O)[C@@H]1CCCN1C(=O)[C@H](CC(=O)O)NC(=O)CN)C(C)C)C(=O)N[C@@H](CC(C)C)C(=O)N[C@@H](C)C(=O)N[C@@H](CS)C(=O)O [Ac96] (H-GDPNCFSRVKILAC-OH) | – | – | – | – | – | % inhibition of bacterial growth by peptide ([2]; 12.5 μM peptide): 0%; % inhibition of bacterial growth by peptide ([2]; 15 μM peptide): 6%; % inhibition of bacterial growth by peptide ([2]; 17.5 μM peptide): 0%; % inhibition of bacterial growth by peptide ([2]; 20 μM peptide): 0%; selectively inhibited growth of Acinetobacter spp. ATCC 19004, and S. aureus [3]: selectively inhibited growth
– | CC(C)C[C@H](NC(=O)[C@@H](NC(=O)[C@H](CCC(=O)O)NC(=O)[C@@H](NC(=O)[C@H](CCCNC(=N)N)NC(=O)CNC(=O)[C@@H](N)CCC(N)=O)C(C)C)C(C)C)C(=O)N[C@@H](Cc1ccc(O)cc1)C(=O)N[C@@H](CCCNC(=N)N)C(=O)NCC(=O)N[C@@H](CO)C(=O)N[C@@H](Cc1c[nH]c2ccccc12)C(=O)NCC(=O)N[C@H](C(=O)N[C@H](C(=O)N[C@@H](CS)C(=O)O)C(C)C)[C@@H](C)O [Ac175, reference compound] (H-QGRVEVLYRGSWGTVC-OH; N-terminus and C-terminus assumed) | – | – | – | – | – | % inhibition of bacterial growth by peptide ([2]; 5 μM peptide): 3%; % inhibition of bacterial growth by peptide ([2]; 10 μM peptide): 0%; % inhibition of bacterial growth by peptide ([2]; 15 μM peptide): 0%; % inhibition of bacterial growth by peptide ([2]; 20 μM peptide): 4%; selectively inhibited growth of S. aureus [3]: selectively inhibited growth
